The conditions of data set [1]: dynamic moisture sorption, 25° C. The method, then:
Moisture sorption profiles were generated at 25° C. using an SGA-100 symmetrical gravimetric analyzer (TA Instrument, New Castle, Del.). The samples (5-20 mg) were exposed to 25% to 95% relative humidity (RH) at step size of 5% RH and from 95 to 99% RH at step size of 1% RH, with a maximum step time of 360 min. The equilibrium criteria were set to change of mass of less than 0.01% (w/w) for 5 min for each step. Nitrogen was used as the purge gas.

Structures can show the parent of a compound that is named as a salt.

Take `Cc1ncc(C[n+]2csc(CCO)c2C)c(N)n1` [Thiamine Cl HCl, thiamine chloride hydrochloride]: the stability in solution entry was “exhibit instability in solution”. Besides, the “relative humidity at which high/elevated hygroscopicity is seen” value in data set [1] stood at 95 % RH.
Turning to `Cc1ncc(C[n+]2csc(CCO)c2C)c(N)n1.[Cl-]` [Thiamine Cl, thiamine chloride], the “relative humidity at which high/elevated hygroscopicity is seen” value in data set [1] was 88 % RH.

These data come from US10717729B2, “Thiamine-organic acid salt” (Purdue Research Foundation, priority 2018, dated 2020).
